Data: patent US20260184710A1, “CASITAS B-LINEAGE LYMPHOMA PROTOONCOGENE B (CBL-B) DEGRADING COMPOUNDS AND ASSOCIATED METHODS OF USE” (Arvinas Operations, Inc., priority 2022, published 2026)
Values belong to the compound of their own block, whether it stands above or below them.

Tests used:
Cbl-b [1] = molecular target: T1, Cbl-b (Homo sapiens, UniProt Q13191); assay: Cbl-b Degradation Method A (FACS, anti-Cbl-b antibody staining); type: cell-based; settings: Cbl-b-HiBit KI Jurkat Cells, incubated at least 20 hours; for Dmax: Jurkat, read-out: Cbl-b Degredation Method A Dmax (%)
T1 construct: Cbl-b-HiBit KI Jurkat Cells were purchased from Promega; host or cells: Cbl-b-HiBiT knock-in Jurkat cells
T1 sequence (Q13191 whole entry): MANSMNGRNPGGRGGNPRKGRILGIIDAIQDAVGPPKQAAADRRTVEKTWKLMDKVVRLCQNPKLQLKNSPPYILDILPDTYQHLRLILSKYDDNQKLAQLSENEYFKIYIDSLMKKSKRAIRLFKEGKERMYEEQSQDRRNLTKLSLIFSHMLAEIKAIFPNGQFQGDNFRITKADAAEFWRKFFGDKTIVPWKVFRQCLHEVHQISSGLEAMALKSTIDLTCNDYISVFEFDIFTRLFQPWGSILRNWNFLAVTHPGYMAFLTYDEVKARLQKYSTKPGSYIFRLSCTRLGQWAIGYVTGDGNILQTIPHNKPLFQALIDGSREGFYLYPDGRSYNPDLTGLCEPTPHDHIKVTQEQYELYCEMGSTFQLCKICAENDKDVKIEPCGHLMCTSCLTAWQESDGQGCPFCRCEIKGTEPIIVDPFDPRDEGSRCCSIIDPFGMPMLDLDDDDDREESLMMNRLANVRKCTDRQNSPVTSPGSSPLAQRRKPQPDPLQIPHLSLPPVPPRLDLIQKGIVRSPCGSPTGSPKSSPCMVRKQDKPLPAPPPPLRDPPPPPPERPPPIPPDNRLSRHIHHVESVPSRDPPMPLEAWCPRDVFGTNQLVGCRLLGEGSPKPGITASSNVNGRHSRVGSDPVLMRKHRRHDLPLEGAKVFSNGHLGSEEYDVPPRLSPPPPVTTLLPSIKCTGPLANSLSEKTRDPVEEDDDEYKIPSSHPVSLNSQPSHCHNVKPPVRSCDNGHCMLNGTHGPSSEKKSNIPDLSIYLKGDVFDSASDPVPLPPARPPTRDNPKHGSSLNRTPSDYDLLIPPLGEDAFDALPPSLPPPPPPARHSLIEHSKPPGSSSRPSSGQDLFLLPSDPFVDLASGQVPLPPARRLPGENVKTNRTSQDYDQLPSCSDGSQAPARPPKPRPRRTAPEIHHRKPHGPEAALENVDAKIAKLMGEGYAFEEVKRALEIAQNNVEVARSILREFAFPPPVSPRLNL
In short: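 Readout is flow cytometry of fixed, permeabilized cells immunostained for Cbl-b (primary 1:200, AF488 secondary). Cells were Cbl-b-HiBit knock-in Jurkat, exposed to compound ≥20 h at 37 °C; half-maximal degradation concentration (DC50) and maximal degradation (Dmax) calculated relative to control.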

Cbl-b [2] = molecular target: T1, Cbl-b; assay: Cbl-b Degradation Method B (Nano-Glo HiBiT lytic detection); type: cell-based; settings: Cbl-b-HiBit KI Jurkat Cells, incubated at least 6-24 hours; for Cbl-b Degredation Method B Dmax (%): maximum degradation observed
In short: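 An 11-point, 3-fold compound dilution was applied for 6-24 hours to Jurkat cells carrying HiBiT-tagged endogenous Cbl-b. Lytic HiBiT luminescence quantified residual protein. Outputs are DC50 and Dmax relative to DMSO control.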

[3] = half maximal degradation, read-out: Cbl-b Degredation Method A IC50
[4] = half maximal degradation, read-out: Cbl-b Degredation Method B IC50

Structure (SMILES): Cc1cc(N2CCC(C(C)(C)N3CCC4(CC3)CN(c3cc5c(c(C(F)(F)F)c3)CN(c3cccc([C@]6(Cc7nncn7C)C[C@@H](C#N)C6)c3)C5=O)C4)CC2)c(F)c2c1C(=O)N([C@@H]1CCC(=O)NC1=O)C2 [Example 278, (1r, 3r)-3-(3-{6-[7-(2-{1-[2-(2,6-dioxopiperidin-3-yl)-4-fluoro-7-methyl-1-oxo-2,3-dihydro-1H-isoindol-5-yl]piperidin-4-yl}propan-2-yl)-2,7-diazaspiro[3.5]nonan-2-yl]-1-oxo-4-(trifluoromethyl)-2,3-dihydro-1H-isoindol-2-yl}phenyl)-3-[(4-methyl-4H-1,2,4-triazol-3-yl)methyl]cyclobutane-1-carbonitrile]
- IC50 (Cbl-b [1]; [3]): 0.05 to 0.5 µM
- Cbl-b Degredation Method A Dmax (%) (Cbl-b [1]; maximum degradation observed): B (35 < B < 70)
- IC50 (Cbl-b [2]; [4]): 0.005 to 0.05 µM
- Cbl-b Degredation Method B Dmax (%) (Cbl-b [2]): C (C ≤ 35)

Structure (SMILES): CC1c2nc(N3CCC(O[C@H]4CC[C@H](CN5CCN(Cc6cc7c(c(C(F)(F)F)c6)CN(c6cccc(C8(c9nncn9C)CCO8)c6)C7=O)C(C)(C)C5)CC4)CC3)ccc2C(=O)N1C1CCC(=O)NC1=O (stereo partly shown) [Example 281, 3-[7-methyl-5-oxo-2-(4-{[(1r, 4r)-4-({3,3-dimethyl-4-[(2-{3-[2-(4-methyl-4H-1,2,4-triazol-3-yl)oxetan-2-yl]phenyl}-3-oxo-7-(trifluoromethyl)-2,3-dihydro-1H-isoindol-5-yl)methyl]piperazin-1-yl}methyl)cyclohexyl]oxy}piperidin-1-yl)-5H, 6H, 7H-pyrrolo[3,4-b]pyridin-6-yl]piperidine-2,6-dione]
- DC50 (Cbl-b [1]; [3]): 0.005 to 0.05 µM
- Dmax (Cbl-b [1]; maximum degradation observed): 35 to 70%
- DC50 (Cbl-b [2]; [4]): < 0.005 µM
- Cbl-b Degredation Method B Dmax (%) (Cbl-b [2]): C (C ≤ 35)

Structure (SMILES): CC(C)n1c(=O)n(C2CCC(=O)NC2=O)c2cccc(N3CCC(CN4CCC5(CC4)CN(Cc4ccc(-c6cc7c(c(C(F)(F)F)c6)CN(c6cccc(C8(Cc9nncn9C)CC(C#N)C8)c6)C7=O)cc4)C5)CC3)c21 (stereo not shown) [Example 283, 3-[3-[6-[4-[[7-[[1-[1-(2,6-dioxo-3-piperidyl)-3-isopropyl-2-oxo-benzimidazol-4-yl]-4-piperidyl]methyl]-2,7-diazaspiro[3.5]nonan-2-yl]methyl]phenyl]-1-oxo-4-(trifluoromethyl)isoindolin-2-yl]phenyl]-3-[(4-methyl-1,2,4-triazol-3-yl)methyl]cyclobutanecarbonitrile]
- DC50 (Cbl-b [1]; [3]): 0.05 to 0.5 µM
- Dmax (Cbl-b [1]; maximum degradation observed): 35 to 70%
- DC50 (Cbl-b [2]; [4]): 0.005 to 0.05 µM
- Cbl-b Degredation Method B Dmax (%) (Cbl-b [2]): C (C ≤ 35)

Structure (SMILES): CC(C)n1c(=O)n(C2CCC(=O)NC2=O)c2cccc(N3CCC(CN4CCC5(CC4)CN(c4cc6c(c(C(F)(F)F)c4)CN(c4cccc([C@]7(Cc8nncn8C)C[C@@H](C#N)C7)c4)C6=O)C5)CC3)c21 (stereo partly shown) [Example 284, (1r,3r)-3-(3-{6-[7-({1-[1-(2,6-dioxopiperidin-3-yl)-2-oxo-3-(propan-2-yl)-2,3-dihydro-1H-1,3-benzodiazol-4-yl]piperidin-4-yl}methyl)-2,7-diazaspiro[3.5]nonan-2-yl]-1-oxo-4-(trifluoromethyl)-2,3-dihydro-1H-isoindol-2-yl}phenyl)-3-[(4-methyl-4H-1,2,4-triazol-3-yl)methyl]cyclobutane-1-carbonitrile]
- DC50 (Cbl-b [1]; [3]): 0.05 to 0.5 µM
- Dmax (Cbl-b [1]; maximum degradation observed): 35 to 70%
- DC50 (Cbl-b [2]; [4]): < 0.005 µM
- Cbl-b Degredation Method B Dmax (%) (Cbl-b [2]): C (C ≤ 35)

Structure (SMILES): Cn1cnnc1CC1(c2cccc(N3Cc4c(cc(CN5CCC[C@@H](CN6CCN(C[C@H]7CC[C@H](OC8CCN(c9ccc%10c(c9F)CN(C9CCC(=O)NC9=O)C%10=O)CC8)CC7)CC6(C)C)C5)cc4C(F)(F)F)C3=O)c2)COC1 (stereo partly drawn) [Example 286, 3-[4-fluoro-1-oxo-5-(4-{[(1r,4r)-4-[(3,3-dimethyl-4-{[(3R)-1-{[2-(3-{3-[(4-methyl-4H-1,2,4-triazol-3-yl)methyl]oxetan-3-yl}phenyl)-3-oxo-7-(trifluoromethyl)-2,3-dihydro-1H-isoindol-5-yl]methyl}piperidin-3-yl]methyl}piperazin-1-yl)methyl]cyclohexyl]oxy}piperidin-1-yl)-2,3-dihydro-1H-isoindol-2-yl]piperidine-2,6-dione]
- DC50 (Cbl-b [1]; [3]): 0.05 to 0.5 µM
- Dmax (Cbl-b [1]; maximum degradation observed): 35 to 70%
- DC50 (Cbl-b [2]; [4]): < 0.005 µM
- Cbl-b Degredation Method B Dmax (%) (Cbl-b [2]): C (C ≤ 35)

Structure (SMILES): Cc1cc(N2CCC(O[C@H]3CC[C@H](CN4CCN(Cc5cc(C(F)(F)F)c6cn(-c7cccc(C8(Cc9nncn9C)CC(C#N)C8)c7)nc6c5)C(C)(C)C4)CC3)CC2)c(F)c2c1C(=O)N(C1CCC(=O)NC1=O)C2 (stereo partly shown) [Example 292, (1r**,3r**)-3-(3-{6-[(2,2-dimethyl-4-{[(1r*,4r*)-4-({1-[2-(2,6-dioxopiperidin-3-yl)-4-fluoro-7-methyl-1-oxo-2,3-dihydro-1H-isoindol-5-yl]piperidin-4-yl}oxy)cyclohexyl]methyl}piperazin-1-yl)methyl]-4-(trifluoromethyl)-2H-indazol-2-yl}phenyl)-3-[(4-methyl-4H-1,2,4-triazol-3-yl)methyl]cyclobutane-1-carbonitrile]
- DC50 (Cbl-b [1]; [3]): 0.005 to 0.05 µM
- Dmax (Cbl-b [1]; maximum degradation observed): < 35%
- DC50 (Cbl-b [2]; [4]): 0.05 to 0.5 µM

Structure (SMILES): COC1CC(Cc2nncn2C)(c2cccc(N3Cc4c(cc(CN5CCN(C[C@H]6CC[C@H](OC7CCN(c8ccc9c(n8)C(C)N(C8CCC(=O)NC8=O)C9=O)CC7)CC6)CC5(C)C)cc4C(F)(F)F)C3=O)c2)C1 (stereo partly shown) [Example 294, 3-[7-methyl-5-oxo-2-(4-{[(1r,4r)-4-[(4-{[2-(3-{3-methoxy-1-[(4-methyl-4H-1,2,4-triazol-3-yl)methyl]cyclobutyl}phenyl)-3-oxo-7-(trifluoromethyl)-2,3-dihydro-1H-isoindol-5-yl]methyl}-3,3-dimethylpiperazin-1-yl)methyl]cyclohexyl]oxy}piperidin-1-yl)-5H,6H,7H-pyrrolo[3,4-b]pyridin-6-yl]piperidine-2,6-dione]
- DC50 (Cbl-b [1]; [3]): 0.05 to 0.5 µM
- Dmax (Cbl-b [1]; maximum degradation observed): > 70%
- DC50 (Cbl-b [2]; [4]): < 0.005 µM
- Cbl-b Degredation Method B Dmax (%) (Cbl-b [2]): C (C ≤ 35)

Further lines, results first:

- DC50 (Cbl-b [1]; [3]): 0.005 to 0.05 µM
- Dmax (Cbl-b [1]; maximum degradation observed): 35 to 70%
- DC50 (Cbl-b [2]; [4]): < 0.005 µM
- Cbl-b Degredation Method B Dmax (%) (Cbl-b [2]): C (C ≤ 35)
Structure (SMILES): CC(C)n1c(=O)n(C2CCC(=O)NC2=O)c2cccc(N3CCC(O[C@H]4CC[C@H](CN5CCCN(Cc6cc7c(c(C(F)(F)F)c6)CN(c6cccc([C@]8(Cc9nncn9C)C[C@@H](C#N)C8)c6)C7=O)CC5)CC4)CC3)c21 (stereo partly shown) [Example 289, (1r,3r)-3-[(4-methyl-4H-1,2,4-triazol-3-yl)methyl]-3-(3-{1-oxo-6-[(4-{[(1r,4r)-4-({1-[1-(2,6-dioxopiperidin-3-yl)-2-oxo-3-(propan-2-yl)-2,3-dihydro-1H-1,3-benzodiazol-4-yl]piperidin-4-yl}oxy)cyclohexyl]methyl}-1,4-diazepan-1-yl)methyl]-4-(trifluoromethyl)-2,3-dihydro-1H-isoindol-2-yl}phenyl)cyclobutane-1-carbonitrile]

- DC50 (Cbl-b [1]; [3]): 0.05 to 0.5 µM
- Dmax (Cbl-b [1]; maximum degradation observed): 35 to 70%
- DC50 (Cbl-b [2]; [4]): < 0.005 µM
- Cbl-b Degredation Method B Dmax (%) (Cbl-b [2]): C (C ≤ 35)
Structure (SMILES): Cn1cnnc1C[C@]1(c2cccc(N3Cc4c(cc(CN5CCN(C[C@H]6CC[C@H](OC7CCN(c8ccc9c(n8)n(C)c(=O)n9C8CCC(=O)NC8=O)CC7)CC6)CC5(C)C)cc4C(F)(F)F)C3=O)c2)C[C@H](C#N)C1 (stereo partly shown) [Example 300, (1r,3r)-3-(3-{6-[(2,2-dimethyl-4-{[(1r,4r)-4-({1-[1-(2,6-dioxopiperidin-3-yl)-3-methyl-2-oxo-1H,2H,3H-imidazo[4,5-b]pyridin-5-yl]piperidin-4-yl}oxy)cyclohexyl]methyl}piperazin-1-yl)methyl]-1-oxo-4-(trifluoromethyl)-2,3-dihydro-1H-isoindol-2-yl}phenyl)-3-[(4-methyl-4H-1,2,4-triazol-3-yl)methyl]cyclobutane-1-carbonitrile]

- DC50 (Cbl-b [1]; [3]): 0.05 to 0.5 µM
- Dmax (Cbl-b [1]; maximum degradation observed): > 70%
- DC50 (Cbl-b [2]; [4]): < 0.005 µM
- Cbl-b Degredation Method B Dmax (%) (Cbl-b [2]): C (C ≤ 35)
Structure (SMILES): Cn1cnnc1C[C@]1(c2cccc(N3Cc4c(cc(CN5CCN(C[C@H]6CC[C@H](OC7CCN(c8cccc9c8n(C)c(=O)n9C8CCC(=O)NC8=O)CC7)CC6)CC5(C)C)cc4C(F)(F)F)C3=O)c2)C[C@H](C#N)C1 (stereo partly shown) [Example 301, (1r,3r)-3-(3-{6-[(2,2-dimethyl-4-{[(1r,4r)-4-({1-[1-(2,6-dioxopiperidin-3-yl)-3-methyl-2-oxo-2,3-dihydro-1H-1,3-benzodiazol-4-yl]piperidin-4-yl}oxy)cyclohexyl]methyl}piperazin-1-yl)methyl]-1-oxo-4-(trifluoromethyl)-2,3-dihydro-1H-isoindol-2-yl}phenyl)-3-[(4-methyl-4H-1,2,4-triazol-3-yl)methyl]cyclobutane-1-carbonitrile]

- DC50 (Cbl-b [1]; [3]): 0.05 to 0.5 µM
- Dmax (Cbl-b [1]; maximum degradation observed): 35 to 70%
- DC50 (Cbl-b [2]; [4]): 0.005 to 0.05 µM
- Cbl-b Degredation Method B Dmax (%) (Cbl-b [2]): C (C ≤ 35)
Structure (SMILES): CC(C)n1c(=O)n(C2CCC(=O)NC2=O)c2cccc(N3CCC(O[C@H]4CC[C@H](CN5CCN(Cc6cc7c(c(C(F)(F)F)c6)CN(c6cccc([C@]8(Cc9nncn9C)C[C@@H](C#N)C8)c6)C7=O)C(C)(C)C5)CC4)CC3)c21 (stereo partly shown) [Example 302, (1r,3r)-3-(3-{6-[(2,2-dimethyl-4-{[(1r,4r)-4-({1-[1-(2,6-dioxopiperidin-3-yl)-2-oxo-3-(propan-2-yl)-2,3-dihydro-1H-1,3-benzodiazol-4-yl]piperidin-4-yl}oxy)cyclohexyl]methyl}piperazin-1-yl)methyl]-1-oxo-4-(trifluoromethyl)-2,3-dihydro-1H-isoindol-2-yl}phenyl)-3-[(4-methyl-4H-1,2,4-triazol-3-yl)methyl]cyclobutane-1-carbonitrile]
